Assay: xn = mol fraction of the nth substance listed
Details: 101.3 kPa, Liquid

COCCOCCOCCOC [2,5,8,11-tetraoxadodecane] + CCCCCCCCC
Details | mass density [kg/m3]
288.15 K, x1 = 0.0981 | 746.25
288.15 K, x1 = 0.1985 | 771.84
288.15 K, x1 = 0.2459 | 784.06
288.15 K, x1 = 0.2944 | 796.71
288.15 K, x1 = 0.3937 | 822.83
288.15 K, x1 = 0.4957 | 850.01
288.15 K, x1 = 0.5957 | 876.93
288.15 K, x1 = 0.6952 | 904
288.15 K, x1 = 0.7937 | 931.06
288.15 K, x1 = 0.9005 | 960.86
288.15 K, x1 = 0.9494 | 974.71
293.15 K, x1 = 0.1006 | 742.71
293.15 K, x1 = 0.1961 | 766.97
293.15 K, x1 = 0.2461 | 779.84
293.15 K, x1 = 0.2982 | 793.34
293.15 K, x1 = 0.3979 | 819.48
293.15 K, x1 = 0.4995 | 846.49
293.15 K, x1 = 0.5939 | 871.77
293.15 K, x1 = 0.6986 | 900.11
293.15 K, x1 = 0.7979 | 927.37
293.15 K, x1 = 0.9022 | 956.37
293.15 K, x1 = 0.95 | 969.87
298.15 K, x1 = 0.1006 | 738.55
298.15 K, x1 = 0.1961 | 762.73
298.15 K, x1 = 0.2461 | 775.58
298.15 K, x1 = 0.2982 | 789.07
298.15 K, x1 = 0.3979 | 815.17
298.15 K, x1 = 0.4995 | 842.12
298.15 K, x1 = 0.5939 | 867.4
298.15 K, x1 = 0.6986 | 895.69
298.15 K, x1 = 0.7979 | 922.84
298.15 K, x1 = 0.9022 | 951.81
298.15 K, x1 = 0.95 | 965.31
303.15 K, x1 = 0.0982 | 733.94
303.15 K, x1 = 0.2002 | 759.61
303.15 K, x1 = 0.2485 | 771.99
303.15 K, x1 = 0.2996 | 785.17
303.15 K, x1 = 0.3994 | 811.21
303.15 K, x1 = 0.495 | 836.5
303.15 K, x1 = 0.5989 | 864.2
303.15 K, x1 = 0.6998 | 891.41
303.15 K, x1 = 0.8005 | 918.9
303.15 K, x1 = 0.8999 | 946.47
303.15 K, x1 = 0.9499 | 960.53
308.15 K, x1 = 0.0977 | 729.91
308.15 K, x1 = 0.1975 | 754.98
308.15 K, x1 = 0.2469 | 767.58
308.15 K, x1 = 0.2964 | 780.35
308.15 K, x1 = 0.3944 | 805.91
308.15 K, x1 = 0.4956 | 832.62
308.15 K, x1 = 0.5976 | 859.8
308.15 K, x1 = 0.6967 | 886.45
308.15 K, x1 = 0.7937 | 912.91
308.15 K, x1 = 0.9021 | 942.91
308.15 K, x1 = 0.9497 | 956.38
318.15 K, x1 = 0.0998 | 722.15
318.15 K, x1 = 0.1975 | 746.41
318.15 K, x1 = 0.2484 | 759.29
318.15 K, x1 = 0.3021 | 773.02
318.15 K, x1 = 0.3883 | 795.32
318.15 K, x1 = 0.4998 | 824.5
318.15 K, x1 = 0.5991 | 850.79
318.15 K, x1 = 0.6998 | 877.63
318.15 K, x1 = 0.799 | 904.47
318.15 K, x1 = 0.9009 | 932.54
318.15 K, x1 = 0.9498 | 946.28
328.15 K, x1 = 0.0998 | 713.9
328.15 K, x1 = 0.1975 | 737.96
328.15 K, x1 = 0.2484 | 750.75
328.15 K, x1 = 0.3021 | 764.37
328.15 K, x1 = 0.3883 | 786.52
328.15 K, x1 = 0.4998 | 815.5
328.15 K, x1 = 0.5991 | 841.63
328.15 K, x1 = 0.6998 | 868.32
328.15 K, x1 = 0.799 | 894.99
328.15 K, x1 = 0.9009 | 922.95
328.15 K, x1 = 0.95 | 936.74

Reference: the NIST ThermoML archive (doi:10.1016/j.jct.2004.08.003)
